Read-outs that look alike come from different tables or passages of the source.

In data set [1] the test system is Mouse leukemia cells P388. Briefly: Antitumor effect on cancer cells in vivo (P388 leukemia, survival). Details: species or system mouse (female CDF1 mice). Conditions: i.v. single administration; for Survived Days: P388 in female CDF1 mice; for Effect (T/C %): ratio of survival days to median of control group. On the procedure:
2. Antitumor effect on cancer cells in vivo
Mouse leukemia cells P388 was intravenously injected to female CDF1 mice of 6 weeks old in a dose of 10^5 cells/mouse. A 5% glucose aqueous solution of 2,3-(methylenedioxy)-7-hydroxy-8-methoxy-5,6-propano-benzo[c]phenanthridinium chloride (Compound No. A-4 of the present invention, (X^- =Cl^-)) was intravenously injected by single administration on the day following the tumor transportation. The antitumor effect was evaluated by comparing the ratio (T/C %) of survival days to the median of survival days in the control group (5 mice).

Data set [2] has as its system Human uterus cancer-derived cells HeLa S3. Kind of data set: Growth prevention against cancer cells (72 h contact, Methylene Blue staining). Conditions: HeLa S3, 72 hours contact, 37° C., read-out: 50% Inhibitory Concentration (IC50). The data set is classed as cell-based. On the procedure:
The compounds of the present invention were examined on the antitumor activity, and the thus obtained results are shown below.
1. Growth prevention against cancer cells
Human uterus cancer-derived cells HeLa S3 were incubated at 37° C. for 24 hours in 5% CO2. A test compound was then brought into contact with the cells for 72 hours. Then, the cells were stained with 0.05% Methylene Blue. The pigment was extracted from the stained cells. The growth inhibition of the cells were determined based on absorbance at 660 nm to calculate 50% growth inhibitory concentration (IC50).

Data set [3] is described as follows: In vitro metabolic test using liver homogenate (S9). Type of data set: in vitro ADME, human. On the procedure: (§1) In addition, when an in vitro metabolic test using liver homogenate (S9) prepared from human liver was performed with reference to the method described in Arch. […] This product coincided with the reduced product formed by the chemical reduction described above.
(§2) 2,3-(Methylenedioxy)-7-hydroxy-8-methoxy-5,6-propano-benzo[c]phenanthridinium chloride, which is one of the compounds of the present invention, was treated with sodium cyanoborohydride in an aqueous solution at room temperature.

Data set [4] can be described thus: Chemical reduction with sodium cyanoborohydride. Type of data set: physicochemical. As to the method: as §1, §2
The compound of the present invention (0.1 mg/mL aqueous solution, 0.1 mL) was diluted with methanol (1.0 mL). An aqueous solution of sodium cyanoborohydride (4 mg/mL, 0.02 mL) was added to the solution. The mixture was allowed to stand at room temperature. The reaction was terminated by adding 1% aqueous phosphoric acid (1 mL) thereto. The residual amount of the compound was determined by high performance liquid chromatography. As a control, 2,3-(methylenedioxy)-5-methyl-7-hydroxy-8-methoxy-benzo[c]phenanthridiniumhydrogensulfate was similarly reacted.

Another data set deals with female CDF1 mice. Briefly: Acute toxicity by intravenous injection. As to conditions: female CDF1 mice of 6 weeks old. Type of data set: in vivo, mouse (female CDF1 mice). On the procedure: The acute toxicity was assessed by intravenous injection of 2,3-(methylenedioxy)-7-hydroxy-8-methoxy-5,6-propano-benzo[c]phenanthridinium chloride (Compound No. A-4 of the present invention, (X^- =Cl^-)) to female CDF1 mice of 6 weeks old.

The mark [5] stands for this setting: aqueous sodium cyanoborohydride.

On to `COc1ccc2c(c1O)c1[n+](c3c4cc5c(cc4ccc23)OCO5)CCC1` [Compound No. A-4, 2,3-(methylenedioxy)-7-hydroxy-8-methoxy-5,6-propano-benzo[c]phenanthridinium chloride], for which the “Survived Days” value is 14 days in data set [1] (25 mg/kg/day), 21 days in data set [1] (50 mg/kg/day), above 30 days in data set [1] (75 mg/kg/day) and above 30 days in data set [1] (100 mg/kg/day). Also, the “Effect (T/C %)” value is 167% in data set [1] (25 mg/kg/day), 250% in data set [1] (50 mg/kg/day), above 357% in data set [1] (75 mg/kg/day) and above 357% in data set [1] (100 mg/kg/day). Further, in data set [2], the IC50 was 170 nM. Besides, the Production of metabolite result in data set [3] is reported as “no metabolite was produced”. Besides, in data set [4] (setting [5]), the “Amount of Compound remained after Reduction” value is on record as 50. In addition, the “Acute toxicity (survival)” value in the data set on female CDF1 mice was “survived even in a dose of 100 mg/kg, without showing any death”.
`COc1ccc2c(c1O)c1[n+](c3c4cc5c(cc4ccc23)OCO5)CCCC1` [Compound No. A-7, 2,3-(methylenedioxy)-7-hydroxy-8-methoxy-5,6-butano-benzo[c]phenanthridinium chloride]: the IC50 in data set [2] is 5600 nM. Further, in data set [4] (setting [5]), the “Amount of Compound remained after Reduction” value was found to be 100.
In the case of `COc1ccc2c(c[n+](C)c3c4cc5c(cc4ccc23)OCO5)c1O` [Control, 2,3-(methylenedioxy)-5-methyl-7-hydroxy-8-methoxy-benzo[c]phenanthridiniumhydrogensulfate, reference compound], the Production of metabolite result in data set [3] (in vitro, liver homogenate (S9) prepared from human liver) is recorded as “production of the metabolite was observed”. Besides, the “Disappearance on treatment with sodium cyanoborohydride” value in data set [4] (aqueous solution, room temperature) was “the phenanthridinium is lost in a few minutes”. Also, in data set [4] (sodium cyanoborohydride, room temperature, terminated with phosphoric acid, HPLC), the “Amount of Compound remained after Reduction” value was 0.

Values taken from patent US6187783A, “Phenanthridinium derivatives” (Nippon Kayaku Kabushiki Kaisha, priority 1996, dated 2001).
